Laboratory results published in publication PMC8187380, “Lipophilic nanocrystal prodrug-release defines the extended pharmacokinetic profiles of a year-long cabotegravir” (Nature Communications, 2021).
Read-outs that look alike come from different tables or passages of the source. Each block holds one compound with its values, some of them ahead of it.

Assays:
[1] = test system: CYP450; design: method as in PMID 26340566, PMID 26049948; conditions: cited from earlier work
[2] = test system: SHIV; design: method as in PMID 24594934; conditions: NHP, cited from earlier work
[3] = cited from earlier work
[4] = test system: HIV-1; conditions: no reference given; cited from earlier work
[5] = test system: human monocyte-derived macrophages (MDMs); assay: Cellular uptake, retention and release in macrophages; assay type: cell-based; conditions: for Percent taken up by MDMs: 8 h, 10 µM
Experimental: Human peripheral blood monocytes were obtained by leukapheresis from HIV-1,2 and hepatitis B seronegative donors and purified by centrifugal elutriation. Monocytes were cultured for the first seven days in macrophage colony stimulating factor enriched media (MCSF, 1000 U/ml) to facilitate cell vitality and differentiation into macrophages[15],[29]. […] Cells were maintained in clear flat-bottom 12-well plates at 37 °C in a 5% CO2 incubator at a density of 1.0 × 10^6 cells per well. Half-culture media was replaced with fresh media every other day. After differentiation, MDM were utilized for CAB prodrug or drug nanoparticle uptake, retention and release. […] At days 1, 5, 10, 15, 20, and 30, adherent MDM were washed twice with PBS, scraped into PBS, and counted using an Invitrogen Countess Automated Cell Counter (Carlsbad, CA). Cell suspension was then centrifuged at 900 × g for 8 min at 4 °C. […] To quantify release kinetics, drug concentrations were measured in samples collected from the culture media from the same retention experiment using preloaded MDMs, at the same time when cells were harvested to quantify intracellular drug retention.

[6] = Metabolic stability in blood; assay type: in vitro ADME, mouse, rat, rabbit, monkey, dog, human; conditions: for Stability in blood: 24 h
Experimental: […] The samples were then centrifuged at 16,000 × g for 10 min after which 10 µl of the supernatant was mixed with 80% methanol (containing 0.1% FA and 2.5 mM AF) containing an internal standard (IS) and analyzed by LC-MS/MS. For the time zero start time, a 100 µl of ice-cold blood was spiked with M2CAB and immediately 0.9 ml of methanol (containing 0.1% FA and 2.5 mM AF) was added. Heat-inactivated plasma was incubated at the same conditions and used as negative controls to differentiate chemical versus metabolic stability.

[7] = Plasma/blood PK after single IM injection in male Balb/cJ mice (UNMC); assay type: in vivo
Experimental: In mice, inguinal, axillary, branchial, and cervical lymph nodes were collected and pooled, while in rats only cervical lymph nodes were collected. Following injection, blood samples were collected at 4 h, days 1, 2, 4, 7, 14, 28, 42, and 56 and then monthly for 12 months into EDTA tubes (blood sample time points were evenly distributed between the four groups). Fifty μl of blood was immediately transferred into 950 μl methanol (containing 0.1% FA and 2.5 mM AF), vortexed, and stored at −80 °C until drug analysis. The remaining portion of the blood samples were centrifuged at 2000 × g for 5 min for plasma collection, which was stored at −80 °C until drug analysis. […] Plasma samples were collected up to day 672 and CAB and M2CAB quantification were performed by LC-MS/MS.
For blood samples, 50 µl blood collected in 950 µl of methanol was vortexed, centrifuged at 16,000 × g for 10 min at 4 °C, and 50 µl supernatant was aspirated, mixed with 50 µl IS [20 ng/ml d3-dolutegravir (d3-DTG) and 40 ng/ml stearoylated darunavir (SDRV)] in 70% methanol (containing 0.1% FA and 2.5 mM AF). d3-DTG was used as the IS (final concentration = 10 ng/ml) for the quantification of CAB, and SDRV (final concentration = 20 ng/ml) was used as the IS for quantification of M2CAB. Ten µl of the sample was analyzed by LC-MS/MS for CAB and M2CAB. […]

[8] = design: method as in PMID 26340566, PMID 26049948; conditions: cited from earlier work
[9] = design: method as in PMID 30387005; conditions: in water; cited from earlier work
[10] = macaques; cited from earlier work
[11] = Chemical (pH) stability of unformulated M2CAB; assay type: physicochemical; conditions: 37 °C, 24 h, 1 μM
Experimental: Next, we assessed the chemical stability of the solubilized form of M2CAB at a range of pHs [pH 1.0 (0.1 M HCl), pH 7.4 (PBS), pH 8.3 (heat-inactivated plasma) and pH 11.0 (0.1 M NaOH)]. […] At 24 h, percent M2CAB recovered was 87, 52, 5, and 2 at pH 1.0, pH 7.4, pH 8.3 and pH 11.0, respectively (Supplementary Fig. 3). Reductions in M2CAB prodrug concentrations paralleled native CAB formation, indicating the hydrolysis of the prodrug M2CAB into parent CAB.
Supplementary Figure 3. M2CAB pH stability. Chemical stability profile of M2CAB at pH 1.0 (0.1 M HCl), pH 7.4 (PBS), pH 8.3 (heat inactivated plasma) and pH 11.0 (0.1 M NaOH) at 1 μM drug concentration. (a) Percent M2CAB remaining vs. time profile for M2CAB; (b) Percent CAB formation vs. time profile from M2CAB. Data are expressed as mean (N = 2 replicates per time point). Each experiment was repeated independently two times with equivalent results.
(1 picture or pasted object on this page, not shown here)

[12] = Metabolic stability in liver S9 fractions; assay type: in vitro ADME, mouse, rat, rabbit, monkey, dog, human; conditions: six species, 2 h incubation, 1 µM
Experimental: The metabolic stabilities of CAB and M2CAB were determined using mouse, rat, rabbit, dog, monkey, and human liver S9 fractions (XenoTech, LLC, Lenexa, KS, USA). Briefly, CAB and M2CAB were incubated at 1 µM in a 100 µl mixture containing S9 fractions at 1 mg/ml protein concentration, NADPH (1 mM), saccharolactone (5 mM), uridine 5′-diphospho-glucuronic acid (UDPGA) (1 mM), and 3′-phosphoadenosin-5′-phosphosulphate (PAPS) ([…]) in PBS (100 mM, pH 7.4) at 37 °C. For each time point (0, 30, and 120 min), reactions were quenched by adding 0.9 ml of methanol (containing 0.1% FA and 2.5 mM AF), followed by centrifugation at 15,000 × g for 10 min. Ten microliters of the supernatants were then analyzed by LC-MS/MS. Heat-inactivated S9 fractions were incubated at the same conditions and used as negative controls. Hydroxycoumarin (7-HC) metabolites including 7-HC-glucuronide and 7-HC-sulfate, and the testosterone metabolite 6β-hydroxytestosterone were used as positive controls for phase I and phase II metabolism.

[13] = Metabolic stability in rat tissue homogenates; assay type: in vitro ADME
Experimental: For metabolic stability in tissues, freshly collected rat liver, spleen, muscle, and lymph node tissues were homogenized in five-volumes of PBS (w/v). […] At different time points (0, 30 min, 2 h, and 6 h), 0.9 ml of methanol (containing 0.1% FA and 2.5 mM AF) was added to each sample and vortexed for 3 min. Samples were centrifuged at 16,000 × g for 10 min, 10 µl supernatant was mixed with 80% methanol (containing 0.1% FA and 2.5 mM AF) containing IS and analyzed by LC-MS/MS.

[14] = Stability in macrophage cell culture media and MDM-cell lysate; assay type: in vitro ADME, human; conditions: M2CAB solution

SMILES: C[C@H]1CO[C@@H]2Cn3cc(C(=O)NCc4ccc(F)cc4F)c(=O)c(O)c3C(=O)N12 [CAB, cabotegravir]
Affinity for CYP450 [1]: low
Protection against intrarectal SHIV challenge ([2]; plasma CAB concentrations >3×PA-IC90): 100%
Protection against intrarectal SHIV challenge ([2]; plasma CAB concentrations ≥1×PA-IC90): 97%
Oral bioavailability [3]: near-complete
Plasma half-life [3]: 30 to 40 h
Eliminated unchanged in feces ([3]; humans): up to 50%
Glucuronide metabolites in urine ([3]; humans): 27%
Terminal phase half-life ([3]; humans): 504 to 1200 h
Unidentified metabolites in feces ([3]; humans): 10%
tmax (oral absorption) ([3]; oral): 1.5 to 2 h
Protein-adjusted 90% inhibitory concentration (PA-IC90) [4]: 0.166 µg/mL
Percent taken up by MDMs [5]: ≤ 0.1%
Intracellular CAB levels in MDMs ([5]; after 8 h drug loading at 10 µM): below or at the limit of detection within hours
Stability in blood ([6]; all species, 1 µM, 37 °C): stable
Percent of CAB recovered ([6]; blood, all six species, by 24 h): more than 90%
Fold CAB blood concentration lower than plasma concentration ([7]; all samples (mice and rats)): ~2 fold
Membrane permeability [8]: high
Aqueous solubility [9]: 15 µg/mL
Terminal phase half-life [10]: 72 to 288 h

Percent M2CAB recovered ([11]; pH 1.0 (0.1 M HCl)): 87%
Percent M2CAB recovered ([11]; pH 7.4 (PBS)): 52%
Percent M2CAB recovered ([11]; pH 8.3 (heat-inactivated plasma)): 5%
Percent M2CAB recovered ([11]; pH 11.0 (0.1 M NaOH)): 2%
Percent of M2CAB lost [12]: < 25%
Stability in blood ([6]; all species, 1 µM, 37 °C): unstable
Percent of M2CAB hydrolyzed ([6]; blood of dog, monkey, mouse, rat, rabbit, human, after 6 h, 1 µM, 37 °C): Greater than 80%
Time within which M2CAB was hydrolyzed into the parent CAB ([6]; blood, all species): ≤ 6 h
Stability in heat-inactivated plasma ([6]; control, 1 µM, 37 °C): unstable
Blood concentration of the prodrug as percent of CAB ([7]; mice and rats, after NM2CAB): < 1%
Stability in heat-inactivated liver homogenate ([13]; control): unstable
Percent of M2CAB remaining/recovered ([13]; rat tissue homogenates, after 6 h incubation, 1 µM): 50–80%
Time to complete hydrolysis into CAB in cell lysates [14]: ≤ 7 days
Time to complete hydrolysis into CAB in media [14]: ≤ 3 days
SMILES: CCCCCCCCCCCCCCCCCC(=O)Oc1c2n(cc(C(=O)NCc3ccc(F)cc3F)c1=O)C[C@H]1OC[C@H](C)N1C2=O [M2CAB]
Percent taken up by MDMs [5]: up to 30%
Percent released into the media (recovered as CAB) ([5]; MDMs, within days): < 95%
Percent of intracellular drug retained by MDMs ([5]; one month after 8 h loading at 10 µM): 4%
